Here are results for one molecule from ChEMBL document CHEMBL5506073, “Discovery of Novel Ortho-Aminophenol Derivatives Targeting Lipid Peroxidation with Potent Antiferroptotic Activities” (J Med Chem, 2024).

For the test, the system named is HT-1080. In words: Inhibition of RSL3-induced ferroptosis in human HT-1080 cells assessed as cell viability upto 10 uM incubated for 24 hrs by CCK8 assay. In kind it is functional, cell-based. Background: Formazan colour is commonly taken as a measure of viable cells.

Activity calls are given as the source filed them. No cut-off for these calls is given here.

Regarding `Nc1c(O)cccc1C(=O)O`, the inhibition entry is “inactive”.
